Source: patent US10124004B2, “Pyrido[3,4-d]pyrimidine derivative and pharmaceutically acceptable salt thereof” (Teijin Pharma Limited, priority 2015, dated 2018)

Key:
[1] = target: T1, CDK4/cyclin D3 (Homo sapiens, UniProt P11802); test: Human CDK4/cyclin D3 inhibitory activity (QS S Assist CDK4/Cyclin D3_FP Kit, IMAP fluorescence polarization); format: biochemical; settings: Human CDK4/cyclin D3 inhibitory activity; read-out: CDK4 Activity symbol
T1 construct: purchased Carna Biosciences, Inc. QS S Assist CDK4/Cyclin D3_FP Kit
In short: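 IMAP fluorescence polarization kit: CDK4/cyclin D3 at 12.5-25 ng/well with kit ATP/substrate/metal mix in 20 mM HEPES pH 7.4, 0.01% Tween20, 2 mM DTT, 45 min at room temperature. FP read at 485/535 nm after 30 min binding; IC50 from dose-response fit of percent inhibition versus enzyme and no-enzyme controls.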

[2] = target: T2, CDK2/cyclin A2 (Homo sapiens, UniProt P24941); test: Human CDK2/cyclin A2 inhibitory activity (QS S Assist CDK2/Cyclin A2_FP Kit, IMAP fluorescence polarization); format: biochemical; settings: Human CDK2/cyclin A2 inhibitory activity; read-out: CDK2 Activity symbol
T2 construct: purchased Carna Biosciences, Inc. QS S Assist CDK2/Cyclin A2_FP Kit
Description: Human CDK2/Cyclin A^2 Inhibitory Activity
Each compound was analyzed for CDK2/cyclin A2 inhibitory activity with an assay kit (QS S Assist CDK2/Cyclin A2_FP Kit, available from Carna Biosciences, Inc.). This assay kit determines kinase activity on the basis of the IMAP technology by Molecular Devices. Specifically, the kinase activity is determined through quantification of a variation in fluorescent polarization caused by binding of a kinase-phosphorylated fluorescent substance to an IMAP-binding reagent.
An assay buffer was prepared by 10-fold dilution of the 10× assay buffer attached to the kit with distilled water, and each solution was prepared with the assay buffer. The assay buffer contained 20 mM HEPES (pH 7.4), 0.01% Tween 20, and 2 mM dithiothreitol. A test compound solution was prepared by dilution of the test compound with dimethyl sulfoxide (DMSO) to a concentration 100 times higher than the final concentration and then 25-fold dilution with the assay buffer to a concentration four times higher than the final concentration. An ATP/substrate/Metal solution was prepared by five-fold dilution of the 5×ATP/substrate/Metal solution attached to the kit with the assay buffer. An enzyme solution was prepared by dilution of the CDK2/cyclin A2 attached to the kit with the assay buffer to a concentration twice higher than the final concentration (final concentration of CDK2/cyclin A2: 2.5 ng/well). A detection reagent was prepared by five-fold dilution of 5×IMAP-binding buffer A with distilled water and 400-fold dilution of the IMAP-binding reagent with the diluted buffer.
The test compound solution (5 μL/well) and the ATP/substrate/Metal solution (5 μL/well) were added to a 384-well plate, and the enzyme solution or the assay buffer (10 μL/well) was added to the plate (total amount of the reaction mixture: 20 μL/well) for initiation of enzymatic reaction. […] The reaction was performed at room temperature for 60 minutes, and the detection reagent (60 μL/well) was then added to the plate, followed by further reaction for 30 minutes at room temperature under light shielding conditions. Subsequently, fluorescent polarization was determined with a microplate reader at an excitation wavelength of 485 nm and an emission wavelength of 535 nm.
The percent inhibition of enzyme activity was calculated for each test compound (note: enzyme activity=100% in the case of addition of the enzyme solution and addition of DMSO instead of the test compound solution, whereas enzyme activity=0% in the case of addition of the assay buffer instead of the enzyme solution and addition of DMSO instead of the test compound solution). The percent inhibition of enzyme activity was fitted to a dose-response curve, to determine a 50% inhibitory concentration against CDK2/cyclin A2.
In each table, “+++” corresponds to IC50<10 nM, “++” 10 nM≤IC50<100 nM, and “+” 100 nM≤IC50.

T1 sequence (P11802 whole entry): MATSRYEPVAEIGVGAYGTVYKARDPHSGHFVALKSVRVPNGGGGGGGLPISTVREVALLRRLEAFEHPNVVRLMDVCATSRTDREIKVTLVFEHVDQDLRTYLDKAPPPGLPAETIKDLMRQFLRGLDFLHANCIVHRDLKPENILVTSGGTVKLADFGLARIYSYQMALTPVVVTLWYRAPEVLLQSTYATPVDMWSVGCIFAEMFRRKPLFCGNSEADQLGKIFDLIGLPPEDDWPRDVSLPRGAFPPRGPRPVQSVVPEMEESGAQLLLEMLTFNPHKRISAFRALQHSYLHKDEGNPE
T1 sequence (P30281 whole entry partner): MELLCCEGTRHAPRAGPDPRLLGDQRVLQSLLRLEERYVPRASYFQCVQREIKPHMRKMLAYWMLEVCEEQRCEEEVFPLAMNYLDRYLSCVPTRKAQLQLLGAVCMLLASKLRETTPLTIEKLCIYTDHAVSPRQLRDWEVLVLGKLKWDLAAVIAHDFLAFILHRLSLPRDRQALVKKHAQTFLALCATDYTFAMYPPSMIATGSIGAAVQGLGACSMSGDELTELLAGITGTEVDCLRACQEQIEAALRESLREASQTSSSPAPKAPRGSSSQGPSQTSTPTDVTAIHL

SMILES | IC50 [1] [nM] | IC50 [2] [nM]
CCNc1nc(C(C)=O)cc2cnc(Nc3ccc(N4CCNCC4)cn3)nc12 [Compound 58] | 10 to 100 | ≥ 100
Cc1c([C@H](C)O)nc(NC(C)C)c2nc(Nc3ccc(N4CCNCC4)cn3)ncc12 [Compound 65] | 10 to 100 | ≥ 100
CC(C)Nc1nc(C(F)F)cc2cnc(Nc3ccc(OCCN(C)C)cn3)nc12 [Compound 81] | < 10 | 10 to 100
CC(C)Nc1nc(C(F)F)cc2cnc(Nc3ccccn3)nc12 [Compound 82] | 10 to 100 | ≥ 100
CC(C)Nc1nc(C(F)F)cc2cnc(Nc3ccc(N4CCNC(=O)C4)cn3)nc12 [Compound 83] | < 10 | 10 to 100
CC(C)Nc1nc(C(F)F)cc2cnc(Nc3ccc(N4CCN(C)C(=O)C4)cn3)nc12 [Compound 84] | < 10 | 10 to 100
CC(C)Nc1nc(C(F)F)cc2cnc(Nc3ccc(NC(N)=O)cn3)nc12 [Compound 85] | 10 to 100 | 10 to 100
CC(=O)Nc1ccc(Nc2ncc3cc(C(F)F)nc(NC(C)C)c3n2)nc1 [Compound 86] | 10 to 100 | ≥ 100
CC(C)Nc1nc(C(F)F)cc2cnc(Nc3ccc(N)cn3)nc12 [Compound 87] | < 10 | < 10
CC(C)Nc1nc(C(F)F)cc2cnc(Nc3ccc(NS(C)(=O)=O)cn3)nc12 [Compound 88] | ≥ 100 | ≥ 100
CC(C)Nc1nc(C(F)F)cc2cnc(Nc3ccc(N4CCNCC4=O)cn3)nc12 [Compound 89] | < 10 | 10 to 100
CC(C)Nc1nc(C(F)F)cc2cnc(Nc3ccc(N4CCC(C(=O)O)CC4)cn3)nc12 [Compound 90] | 10 to 100 | 10 to 100
CC(=O)c1cc2cnc(Nc3ccc(N4CCNCC4)cn3)nc2c(N(C)C(C)C)n1 [Compound 91] | < 10 | ≥ 100
CC(O)c1cc2cnc(Nc3ccc(N4CCNCC4)cn3)nc2c(NC2CCOC2)n1 (stereo not shown) [Compound 92] | < 10 | ≥ 100
CC(O)c1cc2cnc(Nc3ccc(N4CCNCC4)cn3)nc2c(NC2CCCOC2)n1 (stereo not shown) [Compound 93] | < 10 | ≥ 100
CC(C)Nc1nc(C(F)F)cc2cnc(Nc3ccc(CN4CCOCC4)cn3)nc12 [Compound 94] | < 10 | ≥ 100
CC(C)Nc1nc(C(F)F)cc2cnc(Nc3ccc(NC(=O)CO)cn3)nc12 [Compound 95] | ≥ 100 | 10 to 100
CC(C)Nc1nc(C(F)F)cc2cnc(Nc3ccc(C(N)=O)cn3)nc12 [Compound 96] | 10 to 100 | 10 to 100
CC(C)Nc1nc(C(F)F)cc2cnc(Nc3ccc(NC(=O)C(N)=O)cn3)nc12 [Compound 97] | 10 to 100 | ≥ 100
CC(C)Nc1nc(C(F)F)cc2cnc(Nc3ccc(NC(=O)CCO)cn3)nc12 [Compound 98] | ≥ 100 | ≥ 100
CC(C)Nc1nc(C(F)F)cc2cnc(Nc3ccc(-c4ccccc4)cn3)nc12 [Compound 99] | ≥ 100 | ≥ 100
CC(C)Nc1nc(C(F)F)cc2cnc(Nc3ccc(-c4ccncc4)cn3)nc12 [Compound 100] | 10 to 100 | ≥ 100
CC(C)Nc1nc(C(F)F)c(Cl)c2cnc(Nc3ccc(N4CCNCC4)cn3)nc12 [Compound 101] | < 10 | ≥ 100
COC(=O)CCc1ccc(Nc2ncc3cc(C(F)F)nc(NC(C)C)c3n2)nc1 [Compound 102] | 10 to 100 | ≥ 100
CC(C)Nc1nc(C(F)F)cc2cnc(Nc3ccc(OCCN4CCCC4=O)cn3)nc12 [Compound 103] | < 10 | ≥ 100
Cc1cccc(Nc2ncc3cc(C(F)F)nc(NC(C)C)c3n2)n1 [Compound 104] | 10 to 100 | ≥ 100
CC(O)c1cc2cnc(Nc3ccc(N4CCNCC4)cn3)nc2c(NC(C)c2cc[nH]n2)n1 (stereo not shown) [Compound 105] | < 10 | ≥ 100

Further lines, results first:

IC50 [1] [nM] | IC50 [2] [nM] | SMILES
< 10 | ≥ 100 | CC(=O)c1cc2cnc(Nc3ccc(N4CCNCC4)cn3)nc2c(NC2CCOCC2)n1 [Compound 56]
< 10 | ≥ 100 | CC(=O)c1cc2cnc(Nc3ccc(N4CCNCC4)cn3)nc2c(NC2CCCC2)n1 [Compound 57]
< 10 | ≥ 100 | CC(=O)c1cc2cnc(Nc3ccc(N4CCNCC4)cn3)nc2c(NC(C)(C)C)n1 [Compound 59]
< 10 | ≥ 100 | Cc1c(C(F)F)nc(NC(C)C)c2nc(Nc3ccc(N4CCNCC4)cn3)ncc12 [Compound 60]
< 10 | ≥ 100 | CC(C)Nc1nc(C(C)O)cc2cnc(Nc3ccc(N4CCC(O)CC4)cn3)nc12 (stereo not shown) [Compound 61]
< 10 | ≥ 100 | Cc1c(CO)nc(NC(C)C)c2nc(Nc3ccc(N4CCNCC4)cn3)ncc12 [Compound 62]
< 10 | ≥ 100 | CC(C)Nc1nc([C@H](C)O)c(F)c2cnc(Nc3ccc(N4CCNCC4)cn3)nc12 [Compound 63]
< 10 | ≥ 100 | CC(C)Nc1nc([C@@H](C)O)c(F)c2cnc(Nc3ccc(N4CCNCC4)cn3)nc12 [Compound 64]
< 10 | ≥ 100 | Cc1c([C@@H](C)O)nc(NC(C)C)c2nc(Nc3ccc(N4CCNCC4)cn3)ncc12 [Compound 66]
< 10 | 10 to 100 | CC(C)Nc1nc(C(F)F)cc2cnc(Nc3ccc(N4CCNCC4)c(F)n3)nc12 [Compound 67]
< 10 | ≥ 100 | CC(=O)c1nc(NC(C)C)c2nc(Nc3ccc(N4CCNCC4)cn3)ncc2c1C [Compound 68]
< 10 | ≥ 100 | CC(O)c1cc2cnc(Nc3ccc(N4CCNCC4)cn3)nc2c(NCc2ccccc2)n1 (stereo not shown) [Compound 69]
< 10 | ≥ 100 | CC(O)c1cc2cnc(Nc3ccc(N4CCNCC4)cn3)nc2c(NC(C)c2ccccc2)n1 (stereo not shown) [Compound 70]
< 10 | ≥ 100 | CC(C)Nc1nc(C(C)O)cc2cnc(Nc3ccc(N4CCN(C)CC4)cn3)nc12 (stereo not shown) [Compound 71]
< 10 | ≥ 100 | CC(C)Nc1nc(C(C)O)cc2cnc(Nc3ccc(N4CCOCC4)cn3)nc12 (stereo not shown) [Compound 72]
< 10 | 10 to 100 | CC(C)Nc1nc(C(F)F)cc2cnc(Nc3ccc(N4CCNCC4)nn3)nc12 [Compound 73]
< 10 | ≥ 100 | CC(C)Nc1nc(C(C)O)cc2cnc(Nc3ccc(N4CCN(CCO)CC4)cn3)nc12 (stereo not shown) [Compound 74]
< 10 | ≥ 100 | CC(C)Nc1nc(C(C)O)cc2cnc(Nc3ccc(N4CCC(CCCO)CC4)cn3)nc12 (stereo not shown) [Compound 75]
< 10 | ≥ 100 | CC(C)Nc1nc(C(C)O)cc2cnc(Nc3ccc(N4CCC(N)C4)cn3)nc12 (stereo not shown) [Compound 76]
< 10 | ≥ 100 | CC(C)Nc1nc(C(C)O)cc2cnc(Nc3ccc(N4CCC(O)C4)cn3)nc12 (stereo not shown) [Compound 77]
< 10 | ≥ 100 | CC(C)Nc1nc(C(C)O)cc2cnc(Nc3ccc(C4CCNCC4)cn3)nc12 (stereo not shown) [Compound 78]
< 10 | ≥ 100 | CC(C)Nc1nc(C(C)O)cc2cnc(Nc3ccc(CN4CCNCC4)cn3)nc12 (stereo not shown) [Compound 79]
< 10 | 10 to 100 | CC(C)Nc1nc(C(F)F)cc2cnc(Nc3ccc(N4CCN(C)CC4=O)cn3)nc12 [Compound 80]
